Measurements reported in publication PMC6576746, “Rational discovery of dual-indication multi-target PDE/Kinase inhibitor for precision anti-cancer therapy using structural systems pharmacology” (PLoS Computational Biology, 2019).

How the values were obtained:
Assay in all cases: biochemical
Parameters in all cases: DiscoverX KinomeScan competition binding assay across human kinases; per cent of control at 10 and 100 uM
AKT3 = AKT3 (Homo sapiens, UniProt Q9Y243); conditions: competition binding, % of control
How it was run: (§1)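 KinomeScan competition binding was run across a human kinase panel at 10 μM and 100 μM levosimendan. Results are %control = (test − positive control)/(negative control − positive control) × 100.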

ASK1 = target: T1, ASK1 (Homo sapiens, UniProt Q99683); conditions: competition binding, % of control; read-out: Percent Control (100 uM Levosimendan)
T1 construct: gene MAP3K5
How it was run: as §1

CDC2L5 = target: T2, CDC2L5 (Homo sapiens, UniProt Q14004); conditions: competition binding, % of control; read-out: Percent Control (100 uM Levosimendan)
T2 construct: gene CDK13
How it was run: as §1

CSNK1A1 = CSNK1A1 (Homo sapiens, UniProt P48729); conditions: competition binding, % of control
How it was run: as §1

LZK = target: T3, LZK (Homo sapiens, UniProt O43283); conditions: competition binding, % of control; read-out: Percent Control (100 uM Levosimendan)
T3 construct: gene MAP3K13
How it was run: as §1

MAP4K2 = MAP4K2 (Homo sapiens, UniProt Q12851); conditions: competition binding, % of control; read-out: Percent Control (100 uM Levosimendan)
How it was run: as §1

PDGFRA = PDGFRA (Homo sapiens, UniProt P16234); conditions: competition binding, % of control
How it was run: as §1

PIK3C2G = PIK3C2G (Homo sapiens, UniProt O75747); conditions: competition binding, % of control; read-out: Percent Control (100 uM Levosimendan)
How it was run: as §1

PIK3CA(E545K) = PIK3CA(E545K) (Homo sapiens, UniProt P42336, E545K); conditions: competition binding, % of control; read-out: Percent Control (100 uM Levosimendan)
How it was run: as §1

PRKCE = PRKCE (Homo sapiens, UniProt Q02156); conditions: competition binding, % of control; read-out: Percent Control (100 uM Levosimendan)
How it was run: as §1

PRKCH = PRKCH (Homo sapiens, UniProt P24723); conditions: competition binding, % of control; read-out: Percent Control (100 uM Levosimendan)
How it was run: as §1

SIK2 = SIK2 (Homo sapiens, UniProt Q9H0K1); conditions: competition binding, % of control; read-out: Percent Control (100 uM Levosimendan)
How it was run: as §1

SNARK = target: T4, SNARK (Homo sapiens, UniProt Q9H093); conditions: competition binding, % of control; read-out: Percent Control (100 uM Levosimendan)
T4 construct: gene NUAK2
How it was run: as §1

SRC = SRC (Homo sapiens, UniProt P12931); conditions: competition binding, % of control
How it was run: as §1

SRMS = SRMS (Homo sapiens, UniProt Q9H3Y6); conditions: competition binding, % of control; read-out: Percent Control (100 uM Levosimendan)
How it was run: as §1

SRPK2 = SRPK2 (Homo sapiens, UniProt P78362); conditions: competition binding, % of control; read-out: Percent Control (100 uM Levosimendan)
How it was run: as §1

TAOK3 = TAOK3 (Homo sapiens, UniProt Q9H2K8); conditions: competition binding, % of control; read-out: Percent Control (100 uM Levosimendan)
How it was run: as §1

TNK1 = TNK1 (Homo sapiens, UniProt Q13470); conditions: competition binding, % of control; read-out: Percent Control (100 uM Levosimendan)
How it was run: as §1

ZAK = target: T5, ZAK (Homo sapiens, UniProt Q9NYL2); conditions: competition binding, % of control
T5 construct: gene MAP3K20
How it was run: as §1

[1] = read-out: Percent Control (10 uM Levosimendan)
[2] = read-out: Percent Control (100 uM Levosimendan)

Sequence of AKT3 (Q9Y243 whole entry): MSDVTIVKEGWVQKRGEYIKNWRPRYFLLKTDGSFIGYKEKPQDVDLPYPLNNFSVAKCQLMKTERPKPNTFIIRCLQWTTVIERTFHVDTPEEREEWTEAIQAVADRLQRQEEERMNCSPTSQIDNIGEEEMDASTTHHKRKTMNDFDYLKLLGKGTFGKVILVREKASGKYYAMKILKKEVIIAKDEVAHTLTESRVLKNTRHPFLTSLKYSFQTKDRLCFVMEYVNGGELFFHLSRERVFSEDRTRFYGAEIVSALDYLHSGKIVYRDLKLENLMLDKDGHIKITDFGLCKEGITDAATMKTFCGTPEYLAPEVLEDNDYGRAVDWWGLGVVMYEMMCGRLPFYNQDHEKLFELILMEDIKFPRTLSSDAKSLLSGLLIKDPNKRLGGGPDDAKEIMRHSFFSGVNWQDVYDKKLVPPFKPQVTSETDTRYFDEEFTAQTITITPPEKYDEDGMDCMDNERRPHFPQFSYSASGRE
Sequence of CSNK1A1 (P48729 whole entry): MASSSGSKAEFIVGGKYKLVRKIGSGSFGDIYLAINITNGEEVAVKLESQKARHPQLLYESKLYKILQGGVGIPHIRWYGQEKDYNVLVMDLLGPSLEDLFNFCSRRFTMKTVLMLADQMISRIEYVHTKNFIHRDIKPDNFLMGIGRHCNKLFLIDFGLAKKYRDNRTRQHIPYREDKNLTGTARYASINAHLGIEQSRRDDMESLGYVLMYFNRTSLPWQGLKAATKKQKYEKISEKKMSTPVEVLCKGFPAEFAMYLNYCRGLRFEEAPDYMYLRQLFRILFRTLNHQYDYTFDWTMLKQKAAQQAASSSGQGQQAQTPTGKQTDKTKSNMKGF
Sequence of SRC (P12931 whole entry): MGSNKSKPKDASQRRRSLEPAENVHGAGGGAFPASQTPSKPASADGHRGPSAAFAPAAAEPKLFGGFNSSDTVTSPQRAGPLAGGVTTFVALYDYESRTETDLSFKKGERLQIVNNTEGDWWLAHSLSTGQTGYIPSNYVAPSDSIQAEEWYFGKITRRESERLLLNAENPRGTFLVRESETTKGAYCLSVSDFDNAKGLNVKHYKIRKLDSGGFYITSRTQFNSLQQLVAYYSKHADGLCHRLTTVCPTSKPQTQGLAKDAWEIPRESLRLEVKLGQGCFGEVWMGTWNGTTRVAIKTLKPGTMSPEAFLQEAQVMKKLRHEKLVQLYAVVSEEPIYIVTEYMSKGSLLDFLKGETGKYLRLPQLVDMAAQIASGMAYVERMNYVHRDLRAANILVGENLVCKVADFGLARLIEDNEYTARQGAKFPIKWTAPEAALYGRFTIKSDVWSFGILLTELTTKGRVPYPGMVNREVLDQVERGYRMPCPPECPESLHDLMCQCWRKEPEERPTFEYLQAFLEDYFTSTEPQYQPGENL
Sequence of PDGFRA (P16234 whole entry): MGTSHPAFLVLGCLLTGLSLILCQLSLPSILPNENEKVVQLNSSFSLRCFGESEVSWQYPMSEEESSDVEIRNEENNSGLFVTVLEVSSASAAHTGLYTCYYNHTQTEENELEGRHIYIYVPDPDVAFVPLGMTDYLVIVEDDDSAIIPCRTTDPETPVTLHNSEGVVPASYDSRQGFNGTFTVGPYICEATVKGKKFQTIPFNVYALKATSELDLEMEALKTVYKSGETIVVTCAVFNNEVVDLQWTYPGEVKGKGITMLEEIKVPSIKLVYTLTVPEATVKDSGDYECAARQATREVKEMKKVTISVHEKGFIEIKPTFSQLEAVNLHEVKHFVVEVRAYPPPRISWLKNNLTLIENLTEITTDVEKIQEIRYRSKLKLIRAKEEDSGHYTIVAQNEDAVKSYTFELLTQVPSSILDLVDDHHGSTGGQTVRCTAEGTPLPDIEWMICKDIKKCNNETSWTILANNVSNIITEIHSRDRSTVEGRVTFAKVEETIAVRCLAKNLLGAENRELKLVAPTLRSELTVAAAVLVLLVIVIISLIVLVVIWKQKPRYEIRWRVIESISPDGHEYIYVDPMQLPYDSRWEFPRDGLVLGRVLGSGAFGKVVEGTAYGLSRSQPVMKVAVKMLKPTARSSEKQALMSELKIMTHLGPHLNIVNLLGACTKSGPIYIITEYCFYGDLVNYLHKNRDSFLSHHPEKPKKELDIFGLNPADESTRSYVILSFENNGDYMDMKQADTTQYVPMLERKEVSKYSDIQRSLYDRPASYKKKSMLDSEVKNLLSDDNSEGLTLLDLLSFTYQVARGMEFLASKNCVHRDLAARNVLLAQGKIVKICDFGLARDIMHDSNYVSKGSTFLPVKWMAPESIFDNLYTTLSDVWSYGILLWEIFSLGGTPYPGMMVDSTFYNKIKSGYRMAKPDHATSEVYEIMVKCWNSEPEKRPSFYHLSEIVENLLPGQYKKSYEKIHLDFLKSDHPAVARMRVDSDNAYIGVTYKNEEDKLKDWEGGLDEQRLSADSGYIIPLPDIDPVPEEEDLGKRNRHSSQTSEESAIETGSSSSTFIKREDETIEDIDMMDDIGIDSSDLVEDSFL
T5 sequence (Q9NYL2 whole entry): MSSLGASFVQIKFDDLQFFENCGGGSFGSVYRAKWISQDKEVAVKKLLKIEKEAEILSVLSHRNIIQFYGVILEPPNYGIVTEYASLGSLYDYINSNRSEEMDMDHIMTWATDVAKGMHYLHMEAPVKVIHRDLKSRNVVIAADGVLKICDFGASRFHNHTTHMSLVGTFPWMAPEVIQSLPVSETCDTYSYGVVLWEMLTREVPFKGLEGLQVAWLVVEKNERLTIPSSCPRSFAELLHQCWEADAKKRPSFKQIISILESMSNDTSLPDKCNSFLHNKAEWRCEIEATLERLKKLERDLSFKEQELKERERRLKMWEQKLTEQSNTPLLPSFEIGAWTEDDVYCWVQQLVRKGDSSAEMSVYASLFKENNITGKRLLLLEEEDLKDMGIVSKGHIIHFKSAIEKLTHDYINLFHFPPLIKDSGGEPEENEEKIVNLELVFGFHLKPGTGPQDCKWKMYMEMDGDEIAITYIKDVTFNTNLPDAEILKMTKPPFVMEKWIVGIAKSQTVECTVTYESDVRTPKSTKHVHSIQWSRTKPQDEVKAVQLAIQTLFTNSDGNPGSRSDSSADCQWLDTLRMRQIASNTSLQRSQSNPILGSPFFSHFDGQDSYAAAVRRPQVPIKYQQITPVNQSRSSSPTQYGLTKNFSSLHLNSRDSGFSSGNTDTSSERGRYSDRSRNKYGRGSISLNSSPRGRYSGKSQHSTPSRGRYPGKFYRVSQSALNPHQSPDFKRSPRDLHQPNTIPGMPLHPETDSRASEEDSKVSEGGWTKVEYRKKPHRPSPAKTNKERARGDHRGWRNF
Sequence of PRKCE (Q02156 whole entry): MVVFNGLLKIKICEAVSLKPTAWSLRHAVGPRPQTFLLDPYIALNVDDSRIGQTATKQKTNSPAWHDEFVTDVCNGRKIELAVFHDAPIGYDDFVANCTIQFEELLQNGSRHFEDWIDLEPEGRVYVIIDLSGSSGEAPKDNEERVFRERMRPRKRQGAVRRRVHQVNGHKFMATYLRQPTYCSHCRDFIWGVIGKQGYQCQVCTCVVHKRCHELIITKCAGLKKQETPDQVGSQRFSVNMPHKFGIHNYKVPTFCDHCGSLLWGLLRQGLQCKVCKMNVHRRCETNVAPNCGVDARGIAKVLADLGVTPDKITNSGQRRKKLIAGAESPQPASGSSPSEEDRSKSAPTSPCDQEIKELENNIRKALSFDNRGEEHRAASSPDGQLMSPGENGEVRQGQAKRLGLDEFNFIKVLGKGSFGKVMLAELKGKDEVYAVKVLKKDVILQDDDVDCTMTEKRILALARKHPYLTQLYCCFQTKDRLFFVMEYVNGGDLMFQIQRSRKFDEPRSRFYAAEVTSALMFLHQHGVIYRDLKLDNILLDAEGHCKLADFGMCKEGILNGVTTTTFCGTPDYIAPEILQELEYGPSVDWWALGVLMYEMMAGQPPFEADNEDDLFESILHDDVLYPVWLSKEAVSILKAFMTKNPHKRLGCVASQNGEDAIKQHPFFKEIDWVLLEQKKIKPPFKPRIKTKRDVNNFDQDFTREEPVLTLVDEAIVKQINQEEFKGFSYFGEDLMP
T4 sequence (Q9H093 whole entry): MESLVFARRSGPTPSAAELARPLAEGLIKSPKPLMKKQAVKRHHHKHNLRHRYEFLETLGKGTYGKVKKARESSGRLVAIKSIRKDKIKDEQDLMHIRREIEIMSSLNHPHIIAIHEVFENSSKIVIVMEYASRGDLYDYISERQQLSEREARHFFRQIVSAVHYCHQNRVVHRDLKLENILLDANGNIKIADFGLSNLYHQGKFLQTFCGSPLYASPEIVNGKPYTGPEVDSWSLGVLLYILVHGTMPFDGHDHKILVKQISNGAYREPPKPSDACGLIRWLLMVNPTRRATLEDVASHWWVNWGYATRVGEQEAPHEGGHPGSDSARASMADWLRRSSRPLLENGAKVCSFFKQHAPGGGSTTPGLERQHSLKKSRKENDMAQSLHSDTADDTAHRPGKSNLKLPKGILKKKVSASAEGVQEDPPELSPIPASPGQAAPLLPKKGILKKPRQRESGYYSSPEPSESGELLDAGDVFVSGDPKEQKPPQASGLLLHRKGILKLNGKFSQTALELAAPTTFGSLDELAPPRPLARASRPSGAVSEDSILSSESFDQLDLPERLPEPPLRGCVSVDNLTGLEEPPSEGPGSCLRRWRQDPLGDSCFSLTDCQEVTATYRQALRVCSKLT

C[C@@H]1CC(=O)NN=C1c1ccc(NN=C(C#N)C#N)cc1 [levosimendan]
remaining binding at 10 µM (AKT3; [1]): 96% | remaining binding at 100 µM (AKT3; [2]): 37% | remaining binding at 100 µM (ASK1): 100% | remaining binding at 100 µM (CDC2L5): 100% | remaining binding at 10 µM (CSNK1A1; [1]): 98% | remaining binding at 100 µM (CSNK1A1; [2]): 42% | remaining binding at 100 µM (LZK): 100% | remaining binding at 100 µM (MAP4K2): 100% | remaining binding at 10 µM (PDGFRA; [1]): 73% | remaining binding at 100 µM (PDGFRA; [2]): 37% | remaining binding at 100 µM (PIK3C2G): 100% | remaining binding at 100 µM (PIK3CA(E545K)): 58% | remaining binding at 100 µM (PRKCE): 100% | remaining binding at 100 µM (PRKCH): 69% | remaining binding at 100 µM (SIK2): 65% | remaining binding at 100 µM (SNARK): 100% | remaining binding at 10 µM (SRC; [1]): 100% | remaining binding at 100 µM (SRC; [2]): 42% | remaining binding at 100 µM (SRMS): 100% | remaining binding at 100 µM (SRPK2): 100% | remaining binding at 100 µM (TAOK3): 100% | remaining binding at 100 µM (TNK1): 100% | remaining binding at 10 µM (ZAK; [1]): 100% | remaining binding at 100 µM (ZAK; [2]): 52%
